pIC50: −log10 of the molar value.
Experiments:
p38 kinase enzyme = experiment: Inhibition of p38 kinase (33P-ATP, EGF peptide 661-681 substrate); type: biochemical; conditions: 40 minutes at 30° C.
Description: The kinase buffer solution is prepared by combining 2.5 mL 1M Tris-HCl (pH 7.5), 0.1 mL 1 M dithiothreitol, 1.0 mL 1 M magnesium chloride, and 300 μL 1% Triton X-100 and diluting to 100 mL with water. 84 mL of this kinase buffer solution is combined with 16 mL DMSO to prepare the 16% DMSO solution.
The 200 μM ATP solution is prepared by adding 102.6 μL 10 mM aqueous ATP, 25 μL ^33P-ATP, and 163.5 μL of 4 mM aqueous Epidermal Growth Factor Peptide 661-681 (Biomol, Catalog #P-121) in 5 mL kinase buffer solution.
The p38 kinase enzyme solution is prepared by dissolving 9.5 μL concentrated enzyme solution (250 ng p38 enzyme/μL kinase buffer solution) in 1536 μL kinase buffer solution.
An 80 μM solution of each test compound and control compound are prepared by dissolving 2 μL of a 10 mM stock solution of the respective compounds in dimethylsulfoxide in 248 μL of the 16% DMSO solution in a Costar 96-well microtiter plate. […]
10 μL of serially diluted compound is placed with a Beckman Multimek 96-well automated liquid handler to the assay plate. […] The plates are allowed to sit for 30 min and counted on a PE/Wallac Microbeta Trilux scintillation counter for ^33P-isotope.
The compound exemplified in Example 12 is initially tested at 10 concentrations (20 μM-1 nM using 1:3 serial dilutions). […] IC50 values are calculated (IDBS ActivityBase software) for each compound using non-linear regression.

TNFα = experiment: Inhibition of TNFα in vitro (LPS/interferon-γ treated mouse peritoneal macrophages, Luminex); type: cell-based; conditions: Peritoneal macrophage, LPS 50 ng/mL and interferon-γ 10 U/mL, 18 hours, read-out: IC50, suppression of TNFα in vitro
Description: 1 mL thioglycolate broth (5.0 g yeast extract, 15.0 g casitone or trypticase, 5.0 g dextrose, 2.5 g sodium chloride, 0.75 g L-cystine, 0.5 g sodium thioglycolate, 1.0 mg resazurin, and 0.75 g agar in 1.0 L distilled water) are injected into the peritoneal cavity of Balb/C female mice. At day 4 or 5 post-injection the mice are sacrificed and then injected i.p. with 4 mL RPMI-1640 medium (BioWhittaker) and the peritoneal macrophages are withdrawn by syringe.
Mouse peritoneal macrophages are counted with a hemocytometer and adjusted to 5×10^5 cells/well in 96-well plates in RPMI-1640 medium with 10% fetal bovine serum. 200 μL/well is plated in 96-well plates and the cells allowed to settle and adhere to the bottom of the well for at least 3 hours. The test compound or standard p38 kinase inhibitor is pre-treated using a series of 8 concentrations for 1 hour at 37° C. […]
50 μL of cytokine detection antibody is added and incubated for 60 seconds at room temperature on a shaker protected from light at setting 6 and then for 30 minutes at setting 3.3 washes are performed with the Bio-Plex Wash Buffer. […] Standards and samples are read on a Luminex machine. These intensity readings are then converted to picogram/milliliter units based on a 12-point standard curve created in duplicate using a four-parameter logistic regression method (Bio-Plex Manager 2.0, Bio-Rad), and the IC50 calculated. […]

pIC50 (p38 kinase enzyme): 7.47 | pIC50 (TNFα): > 8.05
Compound: CS(=O)(=O)O.Cc1ccc(-n2nc(C3(C)CC3)cc2NC(=O)Nc2cnc(OC3CCN(C(=O)C4(C)CC4)CC3)c3ccccc23)cc1 [Example 12, 1-{1-[1-(1-Methyl-cyclopropanecarbonyl)-piperidin-4-yloxy]-isoquinolin-4-yl}-3-[5-(1-methyl-cyclopropyl)-2-p-tolyl-2H-pyrazol-3-yl]-urea mesylate]

From patent publication US7582638B2, “Pyrazole-isoquinoline urea derivatives as p38 kinase inhibitors” (Eli Lilly and Company, priority 2005, dated 2009)
